Laboratory results reported in paper PMC7618597, “Dual Nurr1/RXR agonism of valerenic acid and synthetic mimetics enables dimer-selective Nurr1 modulation” (ACS medicinal chemistry letters, 2025).

Biological target: T1, full-length Nurr1 monomer (NBRE) (Homo sapiens, UniProt P43354)
T1 construct: full-length human nuclear receptor Nurr1 encoded by pcDNA3.1 -hNurr1-NE; host or cells: HEK293T
Assay: Full-length Nurr1 reporter gene assay, monomer response element NBRE
Assay type: cell-based
Experimental: Based on these findings, we next determined the effects of 2 and 3 on Nurr1 activity in a cellular setting using reporter constructs for the NGFI-B response element (NBRE), the Nur response element (NurRE), and the direct repeat 5 (DR5)[36]. All three response elements are robustly activated by common Nurr1 agonists[4],[31]. […]
modified Eagle’s medium (DMEM), high glucose supplemented with 10% fetal calf serum (FCS), sodium pyruvate (1 mM), penicillin (100 U/mL), and streptomycin (100 μg/mL) at 37 °C and 5% CO2 and seeded in 96-well plates (3×10^4 cells/well). […] Five hours after transfection, the cells were incubated with the test compounds in Opti-MEM supplemented with penicillin (100 U/mL), streptomycin (100 μg/mL), and 0.1% DMSO for 15 h before luciferase activity was measured using the Dual -Glo Luciferase Assay System (Promega) according to the manufacturer’s protocol on a Tecan Spark l uminometer (Tecan Deutschland GmbH, Germany). Firefly luminescence was divided by Renilla luminescence and multiplied by 1000, resulting in relative light units (RLU) to normalize for transfection efficiency and cell growth. […]
Reporter gene assays for full-length human Nurr1 and RXR. […] Firefly luminescence was divided by Renilla luminescence and multiplied by 1000, resulting in relative light units (RLU) to normalize for transfection efficiency and cell growth. […]

T1 sequence (P43354 whole entry): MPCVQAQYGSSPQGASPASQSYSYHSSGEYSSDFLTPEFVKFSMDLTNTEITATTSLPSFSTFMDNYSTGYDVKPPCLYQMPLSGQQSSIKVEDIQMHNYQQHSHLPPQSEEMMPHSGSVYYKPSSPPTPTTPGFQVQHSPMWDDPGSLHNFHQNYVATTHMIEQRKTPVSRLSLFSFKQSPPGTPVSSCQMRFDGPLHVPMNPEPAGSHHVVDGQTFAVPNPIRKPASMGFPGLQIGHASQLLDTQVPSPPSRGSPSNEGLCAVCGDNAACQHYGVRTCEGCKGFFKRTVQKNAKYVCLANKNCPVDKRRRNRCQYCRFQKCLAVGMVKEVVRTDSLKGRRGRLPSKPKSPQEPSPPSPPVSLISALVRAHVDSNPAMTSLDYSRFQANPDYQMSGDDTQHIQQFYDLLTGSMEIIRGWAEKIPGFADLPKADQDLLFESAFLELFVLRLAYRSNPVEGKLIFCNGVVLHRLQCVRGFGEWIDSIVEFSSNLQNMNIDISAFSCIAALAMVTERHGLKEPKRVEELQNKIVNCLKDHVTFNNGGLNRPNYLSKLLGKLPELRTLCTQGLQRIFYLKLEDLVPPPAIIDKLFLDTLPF

Compound	activation on NBRE
Cc1c2c(n(-c3ccc(CC(=O)O)cc3)c1C)CCC(F)(F)C2 [compound 2]	no activation was detectable
Cc1c(C)n(-c2ccc(CC(=O)O)cc2)c2ccc(F)cc12 [compound 3]	no activation was detectable
